Literature values, collected in patent publication US6767550B1, “Hydroxyapatite based drug delivery implant for cancer treatment” (Berkeley Advanced Biomaterials, Inc., priority 2000, dated 2004).

Key:
[1] = 30 mg/m^2 intravenous bolus dose; 2.5 hours after administration
[2] = in vivo
[3] = cumulative dose of 700 mg.m^2

marro drug concentration [1]: 0.52 µg/g
oral absorption [2]: poor oral absorption
SMILES: COc1cccc2c1C(=O)c1c(O)c3c(c(O)c1C2=O)C[C@@](O)(C(=O)CO)C[C@@H]3O[C@H]1C[C@H](N)[C@H](O)[C@H](C)O1 [doxorubicin]
patients experiencing cardiotoxicity [3]: 30-40%
